Reference: US20200246308A1, “SYNERGISTIC COMBINATIONS OF UROLITHINS A AND B FOR IMPROVING COGNITIVE CAPACITY OR COGNITIVE FUNCTION” (Natreon, Inc., priority 2018, published 2020)

Columns and labels:
[1] = tested on: scopolamine induced amnesic rat model; experiment: Passive avoidance test, scopolamine induced amnesic rat model (Example 9B); type: in vivo, Male Wistar rats; conditions: p.o. 7 days: B 50, A 50, B:A 10:50 and 50:50 mg/kg, Shilajit 25 mg/kg b.i.d; scopolamine 1 mg/kg i.p.
Experimental: (§1) The experiment was conducted in accordance with the Principles of laboratory animal care. Male Wistar rats (200-250 g) were purchased from the Central Animal House, Institute of Medical Sciences, Banaras Hindu University (BHU), Varanasi, India. Experiments on animals were approved by the Institutional Animal Ethics Committee of BHU, Varanasi, India. The animals were housed in polypropylene cages under controlled environmental conditions of temperature of 25±1° C. and 45-55% relative humidity and a 12:12 h light/dark cycle. The experimental animals had free access to commercial rat feed and water ad libitum during the experiment. Animals were acclimatized for at least one week before using them for experiments and exposed only once to the experiment.
(§2) Rats were randomly allocated into eight study groups containing six in each group (n=6), as follows:
Drug solution was freshly prepared in 0.3% CMC and administered by oral gavage once a day, for a period of 7 days. Briefly, the whole experiment was conducted for 8 days. […]
Passive avoidance (PA) test: The PA task is a fear-aggravated test used to evaluate learning and memory in rodent models of CNS disorders. […] The transfer of the animal from one compartment to another was recorded and transfer latency time (TLT) was calculated in seconds. […]

[2] = target: T1, Human recombinant AChE (Homo sapiens, UniProt P22303); experiment: In-vitro human recombinant AChE inhibition assay, Ellman method; type: biochemical; conditions: Table 10
T1 construct: purchased Sigma Aldrich
T1 sequence (P22303 32-614): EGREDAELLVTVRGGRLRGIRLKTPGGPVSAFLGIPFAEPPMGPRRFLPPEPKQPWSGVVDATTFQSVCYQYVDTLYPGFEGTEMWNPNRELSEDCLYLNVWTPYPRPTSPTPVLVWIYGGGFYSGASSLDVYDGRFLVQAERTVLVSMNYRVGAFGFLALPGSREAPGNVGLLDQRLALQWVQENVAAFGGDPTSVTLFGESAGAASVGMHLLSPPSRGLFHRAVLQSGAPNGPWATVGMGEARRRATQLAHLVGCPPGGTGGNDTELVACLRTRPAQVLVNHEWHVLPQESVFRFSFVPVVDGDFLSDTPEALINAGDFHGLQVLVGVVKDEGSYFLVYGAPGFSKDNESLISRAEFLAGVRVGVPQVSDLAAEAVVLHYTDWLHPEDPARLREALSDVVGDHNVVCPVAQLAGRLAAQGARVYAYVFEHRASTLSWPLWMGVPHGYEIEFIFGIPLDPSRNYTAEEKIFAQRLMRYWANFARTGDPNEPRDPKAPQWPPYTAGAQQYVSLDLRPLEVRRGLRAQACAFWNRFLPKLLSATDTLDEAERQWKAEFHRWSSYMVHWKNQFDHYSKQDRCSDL
From the text: In-vitro human recombinant AChE inhibition assay: Procedure described by Ellman et al. was used after some modification for AChE inhibition assay. Human recombinant AChE was purchased from Sigma Aldrich (St. Louis, Mo.). Acetylthiocholine iodide (ATCI), 5,5′-dithiobis (2-nitrobenzoic acid) (DTNB-Ellman's reagent) were purchased from Himedia Pvt. Ltd. (New Delhi, India). Donepezil was used as positive control groups. Tris-HCl buffer (pH 8) was used to perform the in-vitro assay.
Further, substrate i.e. ATCI (15 mM, 30 μL) was added and it was incubated for additional 30 min. Finally 160 μL (1.5 mM) of DTNB was added and the absorbance was recorded at 415 nm using Epoch microplate reader (BioTek). The IC50 value was calculated using absorbance obtained from the test and standard compounds. The assay was performed in triplicate and in three independent runs (see Equation 1).

[3] = tested on: scopolamine induced amnesic rat model; experiment: Y-maze test, scopolamine induced amnesic rat model (Example 9A); type: in vivo, Male Wistar rats; conditions: scopolamine 1 mg/kg i.p.; for Curiosity behavior (total arm entries), trial-1 and trial-2 / Spatial recognition memory (known vs novel arm entries %), trial-2: p.o. 7 days: B 50, A 50, B:A 10:50 and 50:50 mg/kg; for Curiosity behavior (total arm entries), trial-1 and trial-2: Shilajit 25 mg/kg b.i.d; for Coping behavior to novel environment (% time in novel arm), trial-2: p.o. 7 days: B 50, A 50, B:A 10:50 and 50:50, Shilajit 50 mg/kg
Experimental: as §1, §2
Drug solution was freshly prepared in 0.3% CMC and administered by oral gavage once a day, for a period of 7 days. Briefly, the whole experiment was conducted for 8 days. Scopolamine (1 mg/kg), a muscarinic receptor antagonist, was dissolved in normal saline (0.9% NaCl) and administered intraperitoneally 1 h after drugs administration on seventh day.
Assessment of short term memory by Y maze test paradigm. The Y-maze test was performed essentially to assess spatial recognition memory, general exploratory behavior and anxiety-like behavior by following the standard protocol (Dellu, F., Mayo, W., Cherkaoui, J., Le Moal, M., Simon, H., “A two-trial memory task with automated recording: study in young and aged rats,” Brain Res. (1992) 588: 132-139). The Y-maze apparatus consists of three identical arms (50 cm long, 16 cm wide and 32 cm high) at 120° angles to each other, radiating out from a central point. Visual cues made from colored construction paper and laboratory glassware were placed around the perimeter of the maze and above the top of the black plexiglass sides and these cues were not repeated for each test to maintain novelty to the animals. The novel arm of the Y-maze was blocked and rats were allowed to visit the other two arms of the maze for 15 min. Four hours after the first phase, animals had free access to all three arms for 5 min. The number of entries in each arm was recorded for a 5-min period. The dependent variables such as the total number of entries in all arms (for the 5 min of trial 1 and 2), the % entries in known and novel arms for the 5 min period of trial 2 and the percentage of ratio of time spent in novel arm to time spent in all the arms and in the center of the apparatus during trial 2 were measured. The total number of entries in all arms (for the 5 min of trial 1 and 2) is indicative of general exploration attitude (curiosity) and the % entries in known versus novel arm for the 5 min period of trial 2 is considered as a measure of arm discrimination (spatial recognition memory). Coping strategy or behavior to novel environment was estimated by the percentage of time spent in novel arm to time spent in all arms and in the center of the apparatus during trial 2. The decrease in the coping behavior to novel environment was considered as increase in anxiety-like behavior. An arm entry was counted when the head and two front paws were inside the arm, and duration of an arm visit was ended when the head and two front paws were outside the arm again.

| SMILES | Transfer latency time (TLT), retention trial vs acquisition trial [1] | IC50 [2] | Curiosity behavior (total arm entries), trial-1 and trial-2 [3] | Spatial recognition memory (known vs novel arm entries %), trial-2 [3] | Coping behavior to novel environment (% time in novel arm), trial-2 [3] |
| --- | --- | --- | --- | --- | --- |
| O=c1oc2cc(O)ccc2c2ccc(O)cc12 [Urolithin A, 3,8-dihydroxy-dibenzo-alpha-pyrone] | significant increase in TLT of retention trial in comparison to acquisition trial but less effective as compared to the vehicle treated group | 410.50 ± 38.52 µg/mL | attenuated the scopolamine induced decrease in curiosity behavior | significantly reversed the scopolamine induced failed the discrimination behavior but not similar as to the vehicle group | attenuated the scopolamine-induced decrease in coping strategy to a novel environment but not similar to that vehicle group |
| O=c1oc2cc(O)ccc2c2ccccc12 [Urolithin B, 3-hydroxy-dibenzo-alpha-pyrone] | significant increase in TLT of retention trial in comparison to acquisition trial but less effective as compared to the vehicle treated group | 272.67 ± 42.11 µg/mL | attenuated the scopolamine induced decrease in curiosity behavior | significantly reversed the scopolamine induced failed the discrimination behavior but not similar as to the vehicle group | attenuated the scopolamine-induced decrease in coping strategy to a novel environment but not similar to that vehicle group |
